Assay results taken from PubChem BioAssay (NCI).
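All cell lines were grown in 96-well plates and treated with compound for 48 hours. TGI: total growth inhibition.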

Tests used:
Test in all cases: NCI-60 cell line screen, 48 h
[1] = system: MOLT-4 leukemia
[2] = system: SK-OV-3 ovarian
[3] = system: U251 CNS
[4] = system: HOP-62 NSCLC
[5] = system: OVCAR-4 ovarian
[6] = system: MALME-3M melanoma
[7] = system: RPMI-8226 leukemia
[8] = system: OVCAR-5 ovarian
[9] = system: UACC-62 melanoma
[10] = system: OVCAR-8 ovarian
[11] = system: A498 renal
[12] = system: MDA-N
[13] = system: NCI-H522 lung
[14] = system: SF-268 CNS
[15] = system: RXF 393 renal
[16] = system: T-47D breast
[17] = system: BT-549 breast

`OC(CC(CC(O)(C(F)(F)Cl)C(F)(F)Cl)=NNc1ccccc1)(C(F)(F)Cl)C(F)(F)Cl` was tested, and the TGI [1] was over 10 µM, the TGI [2] was over 10 µM and the TGI [3] was over 10 µM. The TGI [4] was 7.95 µM, the TGI [5] was over 10 µM and the TGI [6] was 7.14 µM. It also gave a TGI [7] of over 10 µM, a TGI [8] of over 10 µM and a TGI [9] of 4.95 µM. The TGI [10] was over 10 µM, the TGI [11] was 6.72 µM and the TGI [12] was 7.81 µM. The TGI [13] was over 10 µM, the TGI [14] was 7.44 µM and the TGI [15] was 6.82 µM. It also gave a TGI [16] of 9.42 µM and a TGI [17] of 5.69 µM.
Work on `C=C(C)[C@@H]1C[C@H]2O[C@](O)(C(=C)CC(=O)/C=C(/C)C[C@@H]3OC(=O)[C@]24O[C@@H]34)[C@H]1O` yielded a TGI [1] of over 100 µM, a TGI [2] of over 100 µM and a TGI [3] of over 100 µM. It also gave a TGI [4] of over 100 µM, a TGI [5] of over 100 µM and a TGI [6] of over 100 µM. It also gave a TGI [7] of over 100 µM, a TGI [8] of over 100 µM and a TGI [9] of over 100 µM. The TGI [10] was over 100 µM, the TGI [11] was over 100 µM and the TGI [12] was over 100 µM. For the same compound, the TGI [13] was over 100 µM, the TGI [14] was over 100 µM and the TGI [15] was over 100 µM. The TGI [16] was over 100 µM and the TGI [17] was over 100 µM.
`O[C@@]1(c2cccs2)c2cccc(Cl)c2[C@](O)(c2cccs2)c2cccc(Cl)c21` showed a TGI [1] of 56.3 µM, a TGI [2] of 74.2 µM and a TGI [3] of 33.2 µM. It also gave a TGI [4] of over 100 µM, a TGI [5] of 40.9 µM and a TGI [6] of 37.2 µM. For the same compound, the TGI [7] was 66.2 µM, the TGI [8] was 37.6 µM and the TGI [9] was 23.8 µM. The TGI [10] was over 100 µM, the TGI [11] was 25.8 µM and the TGI [12] was 36.4 µM. It also gave a TGI [13] of 55.6 µM, a TGI [14] of 66.8 µM and a TGI [15] of 38.2 µM. It also gave a TGI [16] of over 100 µM and a TGI [17] of 48.1 µM.
For `O=[N+]([O-])c1ccc(N=Nc2c(O)ccc3cc(S(=O)(=O)O)ccc23)cc1`, the TGI [1] was over 100 µM, the TGI [2] was over 100 µM and the TGI [3] was over 100 µM. For the same compound, the TGI [4] was over 100 µM, the TGI [5] was over 100 µM and the TGI [6] was over 100 µM. It also gave a TGI [7] of over 100 µM, a TGI [8] of over 100 µM and a TGI [9] of over 100 µM. The TGI [10] was over 100 µM, the TGI [11] was over 100 µM and the TGI [12] was over 100 µM. The TGI [13] was over 100 µM, the TGI [14] was over 100 µM and the TGI [15] was over 100 µM. The TGI [16] was over 100 µM and the TGI [17] was over 100 µM.
`Cc1cccc(-n2c(C)nc3ccc(NC4OC(CO)C(O)C(O)C4O)cc3c2=O)c1` (centres undefined) showed a TGI [1] of over 100 µM, a TGI [3] of over 100 µM and a TGI [4] of over 100 µM. The TGI [5] was over 100 µM, the TGI [6] was over 100 µM and the TGI [7] was over 100 µM. For the same compound, the TGI [8] was over 100 µM, the TGI [9] was over 100 µM and the TGI [10] was over 100 µM. The TGI [11] was over 100 µM, the TGI [12] was over 100 µM and the TGI [13] was over 100 µM. It also gave a TGI [14] of over 100 µM, a TGI [15] of over 100 µM and a TGI [16] of over 100 µM. For the same compound, the TGI [17] was over 100 µM.
`CCC(CS(=O)(=O)O)[N+](=O)[O-]` (centres undefined) showed a TGI [1] of over 100 µM, a TGI [2] of over 100 µM and a TGI [3] of over 100 µM. For the same compound, the TGI [4] was over 100 µM, the TGI [5] was over 100 µM and the TGI [6] was over 100 µM. The TGI [7] was over 100 µM, the TGI [8] was over 100 µM and the TGI [9] was over 100 µM. The TGI [10] was over 100 µM, the TGI [11] was over 100 µM and the TGI [12] was over 100 µM. The TGI [13] was over 100 µM, the TGI [14] was over 100 µM and the TGI [15] was over 100 µM. It also gave a TGI [16] of over 100 µM and a TGI [17] of over 100 µM.
For `CO[C@H]1O[C@@H]2CO[C@@H](c3ccccc3)O[C@H]2[C@@H]2CC=CCC[C@]12O`, the TGI [1] was 73.3 µM, the TGI [2] was over 100 µM and the TGI [3] was over 100 µM. The TGI [4] was over 100 µM, the TGI [5] was over 100 µM and the TGI [6] was 29.3 µM. It also gave a TGI [7] of 90.1 µM, a TGI [8] of over 100 µM and a TGI [9] of over 100 µM. It also gave a TGI [10] of over 100 µM, a TGI [11] of 92.7 µM and a TGI [12] of over 100 µM. For the same compound, the TGI [13] was 31 µM, the TGI [14] was 51 µM and the TGI [15] was over 100 µM. It also gave a TGI [16] of over 100 µM and a TGI [17] of 69 µM.
Work on `O=C(O)CN=C(C(=NCC(=O)O)c1ccccc1)c1ccccc1` yielded a TGI [1] of over 100 µM, a TGI [2] of over 100 µM and a TGI [3] of over 100 µM. It also gave a TGI [4] of over 100 µM, a TGI [5] of over 100 µM and a TGI [6] of over 100 µM. For the same compound, the TGI [7] was over 100 µM, the TGI [8] was over 100 µM and the TGI [9] was over 100 µM. For the same compound, the TGI [10] was over 100 µM, the TGI [11] was over 100 µM and the TGI [12] was over 100 µM. For the same compound, the TGI [13] was over 100 µM, the TGI [14] was over 100 µM and the TGI [15] was over 100 µM. It also gave a TGI [16] of over 100 µM and a TGI [17] of over 100 µM.
In the case of `CC(=O)NC1=C(C)C(=O)c2c(nc3n2CCC3OC(=O)c2ccccc2)C1=N` (centres undefined), the TGI [1] was 5.24 µM, the TGI [2] was 6.59 µM and the TGI [3] was 9.45 µM. For the same compound, the TGI [4] was 7.28 µM, the TGI [5] was 1.2 µM and the TGI [6] was 2.45 µM. For the same compound, the TGI [7] was 4.34 µM, the TGI [8] was 7.36 µM and the TGI [9] was 1.09 µM. For the same compound, the TGI [10] was 8.5 µM, the TGI [11] was 3.66 µM and the TGI [12] was 0.347 µM. The TGI [13] was 7.47 µM, the TGI [14] was 6.28 µM and the TGI [15] was 2.9 µM. It also gave a TGI [16] of 10.9 µM and a TGI [17] of 1.65 µM.
Work on `Nc1nc(Cl)c(N)c(NCC2(CO)CC(Cc3ccccc3)C2)n1` (centres undefined) yielded a TGI [1] of over 78.8 µM, a TGI [2] of over 100 µM and a TGI [3] of over 56.7 µM. The TGI [4] was over 100 µM, the TGI [5] was over 100 µM and the TGI [6] was over 100 µM. The TGI [7] was over 78.8 µM, the TGI [8] was over 100 µM and the TGI [9] was over 100 µM. For the same compound, the TGI [10] was over 100 µM, the TGI [11] was over 78.5 µM and the TGI [12] was over 100 µM. The TGI [13] was over 100 µM, the TGI [14] was over 100 µM and the TGI [15] was over 100 µM. It also gave a TGI [16] of over 100 µM and a TGI [17] of over 100 µM.
With `O=C(O)c1nc2cc(C(F)(F)F)ccc2nc1Nc1ccc(Cl)c(Cl)c1` the TGI [2] was 30.7 µM, the TGI [3] was 33.6 µM and the TGI [4] was 27.6 µM. For the same compound, the TGI [5] was 65.9 µM, the TGI [6] was 38.7 µM and the TGI [7] was 59 µM. It also gave a TGI [8] of 32 µM, a TGI [9] of 25 µM and a TGI [10] of 26 µM. It also gave a TGI [11] of 31.1 µM, a TGI [12] of 69.2 µM and a TGI [13] of 31.4 µM. For the same compound, the TGI [14] was 36.4 µM, the TGI [15] was 37.5 µM and the TGI [16] was 36.8 µM. For the same compound, the TGI [17] was 27.5 µM.
`CC(CN(C)C)C(=O)c1ccccc1C(=O)O` (centres undefined) was tested, and the TGI [1] was 70.1 µM, the TGI [2] was over 100 µM and the TGI [3] was 38.2 µM. For the same compound, the TGI [4] was 85.8 µM, the TGI [5] was over 100 µM and the TGI [6] was 83 µM. It also gave a TGI [7] of 78 µM, a TGI [8] of over 100 µM and a TGI [9] of 51.3 µM. The TGI [10] was 98.8 µM, the TGI [11] was over 100 µM and the TGI [12] was over 100 µM. The TGI [13] was 36.6 µM, the TGI [14] was over 100 µM and the TGI [15] was over 100 µM. For the same compound, the TGI [16] was over 100 µM and the TGI [17] was 41.7 µM.
Compound `C[n+]1noc(/N=N\[O-])c1-c1cc(-c2c(/N=N\[O-])on[n+]2C)cc(-c2c(/N=N/[O-])on[n+]2C)c1` has a TGI [1] of over 100 µM, a TGI [2] of over 100 µM and a TGI [3] of over 100 µM. For the same compound, the TGI [4] was over 100 µM, the TGI [5] was over 100 µM and the TGI [6] was over 100 µM. The TGI [7] was over 100 µM, the TGI [8] was over 100 µM and the TGI [9] was over 100 µM. The TGI [10] was over 100 µM, the TGI [11] was over 100 µM and the TGI [12] was over 100 µM. It also gave a TGI [13] of over 100 µM, a TGI [14] of over 100 µM and a TGI [15] of over 100 µM. It also gave a TGI [16] of over 100 µM and a TGI [17] of over 100 µM.
